Assay results reported in patent EP4553077A1 (Kinoteck Therapeutics Co., Ltd, priority 2022, dated 2024).

Key:
[1] = molecular target: Ba/F3-TEL-FGFR2 (Homo sapiens, UniProt P21802+P41212); assay: Cell viability (proliferation inhibition) of Ba/F3 cells, CellTiter Glo; details: read-out: Ba/F3 cell FGFR2 (IC50 nM), 72 h
[2] = tested on: SNU16 cells; assay: Proliferation inhibition, CCK-8 colorimetric method; format: cell-based
Procedure: (§1) CCK-8 (Bimake/B34304) colorimetric method was used to detect the in vitro proliferation inhibitory effect of compounds on suspended or adherent cells in this experiment. The specific experimental steps were as follows: • 1) Cell plating: SNU16 and A204 tumor cells (cells from Shanghai Institute of Organic Chemistry, Chinese Academy of Sciences) in the logarithmic growth phase were digested and centrifuged for trypan blue counting, and the cells were seeded into a transparent 96 well plate at a density of 4000 cells/100 µ 1/well. […] The test compound and control compound stock solution were diluted with the corresponding culture medium required for cell culture (with or without solvent DMSO) to obtain a series of working solutions, with concentrations of twice the final concentration. The solvent DMSO contents in each concentration group were consistent with that of the solvent control group. The final concentration of A204 cells started at 10 µM and was diluted twice.
(§2) Calculation of cell survival rate: Cell survival rate (%)=[(As-Ac)/(Ab-Ac)] × 100%] (As: experimental well; Ab: Solvent control well; Ac: Blank well).

[3] = tested on: A204 cells; assay: as above; format: cell-based; details: 72 h
Procedure: as §1, §2

[4] = molecular target: Ba/F3-TEL-FGFR1 (Homo sapiens, UniProt P11362+P41212); assay: Cell viability (proliferation inhibition) of Ba/F3 cells, CellTiter Glo; details: read-out: Ba/F3 cell FGFR1 (IC50 nM), 72 h
Chain of Ba/F3-TEL-FGFR1 (P11362 478-767 limits assumed, one chain of several): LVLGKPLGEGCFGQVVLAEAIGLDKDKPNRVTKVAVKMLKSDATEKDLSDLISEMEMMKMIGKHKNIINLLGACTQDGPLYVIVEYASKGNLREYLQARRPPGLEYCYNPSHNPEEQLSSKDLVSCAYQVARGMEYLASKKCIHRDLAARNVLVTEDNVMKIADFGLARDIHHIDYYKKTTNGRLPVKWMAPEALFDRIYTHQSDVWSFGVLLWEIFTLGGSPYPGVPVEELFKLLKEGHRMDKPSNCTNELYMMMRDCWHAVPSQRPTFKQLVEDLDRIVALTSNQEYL

[5] = Pharmacokinetic test in rats; format: in vivo, male SD rats; details: rat, plasma, oral gavage administration, 10 mg/kg
Procedure: Rat pharmacokinetic experiments were performed using male SD rats, 180-220g, provided by Beijing Vital River Laboratory Animal Technology Co., Ltd. 3 rats that were fasted overnight were taken, and administered orally by gavage (10 mg/kg). Blood samples were collected before administration, as well as 5, 15, 30 min and 1, 2, 4, 6, 8, 24 h after administration; another 3 rats were taken and administered intravenously (1 mg/kg), blood samples were collected before administration, as well as 5, 15, 30 min and 1, 2, 4, 6, 8, 24 h after administration. Blood sample was centrifuged at 6800g, 2-8 °C for 6 min, and plasma was collected, and stored at -80 °C. Plasma of each time point was taken, 10 times the amount of 50% methanol acetonitrile solution containing internal standard was added, and mixed by vortex for 5 min, centrifuged at 18000 rpm at 4 °C for 10 min, and the supernatant was taken directly for LC-MS/MS analysis. The main pharmacokinetic parameters were analyzed using WinNonlin8.2 software for non compartmental model analysis. Table 3: pharmacokinetic test in rats results of test compounds

Chain of Ba/F3-TEL-FGFR2 (P21802 481-770 limits assumed, one chain of several): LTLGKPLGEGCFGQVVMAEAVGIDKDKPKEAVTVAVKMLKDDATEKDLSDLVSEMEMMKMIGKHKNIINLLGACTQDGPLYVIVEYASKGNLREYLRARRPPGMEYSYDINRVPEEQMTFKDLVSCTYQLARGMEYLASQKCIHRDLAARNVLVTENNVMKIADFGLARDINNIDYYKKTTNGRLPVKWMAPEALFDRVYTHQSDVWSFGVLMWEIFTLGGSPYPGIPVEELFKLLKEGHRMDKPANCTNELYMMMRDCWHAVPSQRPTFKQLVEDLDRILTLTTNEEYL

Structure (SMILES) | IC50 [1] | IC50 [4] | further results
C=C(F)C(=O)Nc1ccc(-c2c(-c3ccc(N=S4(=O)CCCCC4)cc3)c3c(N)ncnc3n2C)cc1 [Compound 68, N-(4-(4-amino-7-methyl-5-(4-((1-oxotetrahydro-2H-1 λ^6-thiopyran-1-ylidene)amino)phenyl)-7H-pyrrolo[2,3-d]pyrimidin-6-yl)phenyl)-2-fluoroacrylamide] | 0.5 nM | – | IC50 ([2]; Homo sapiens, SNU-16, 72 h): 1.65 nM; IC50 ([3]; Homo sapiens): 267 nM
C=C(C)C(=O)Nc1ccc(-c2c(-c3ccc(N=S(=O)(N(C)C)C(F)(F)F)cc3)c3c(N)ncnc3n2C)c(F)c1 (stereo not drawn) [Compound 32] | 0.4 nM | – | IC50 ([2]; 72 h): 9.56 nM; IC50 [3]: 2250 nM
CC#CC(=O)Nc1ccc(-c2c(-c3ccc(N=S4(=O)CCCCC4)c(F)c3)c3c(N)ncnc3n2C)cc1 [Compound 35, N-(4-(4-amino-5-(3-fluoro-4-((1-oxotetrahydro-2H-1 λ^6-thiopyran-1-ylidene)amino)phenyl) -7-methyl-7H-pyrrolo [2,3-d]pyrimidin-6-yl)phenyl) but-2-ynamide] | 4.4 nM | – | IC50 ([2]; Homo sapiens, SNU-16, 72 h): 4.91 nM; IC50 ([3]; Homo sapiens): 406 nM
[2H]C([2H])([2H])n1c(-c2ccc(NC(=O)C(=C)C)cc2Cl)c(-c2ccc(N=S3(=O)CCC3)c(Cl)c2)c2c(N)ncnc21 [Compound 95, N-(4-(4-amino-5-(3-chloro-4-((1-oxo-1 λ^6-thietan-1-ylidene)amino)phenyl) -7-(methyl-d3) -7H-pyrrolo [2,3-d]pyrimidin-6-yl) -3-chlorophenyl) methacrylamide] | 0.7 nM | 484 nM | –
C=C(C)C(=O)Nc1ccc(-c2c(-c3ccc(N=S4(=O)CCCC4)c(C)c3)c3c(N)ncnc3n2C)c(F)c1 [Compound 87, N-(4-(4-amino-7-methyl-5-(3-methyl-4-((1-tetrahydro-1λ^6-thiophene-1-ylidene)amino)phenyl) -7H-pyrrolo [2,3-d]pyrimidin-6-yl) -3-fluorophenyl) methacrylamide] | 2.1 nM | 666 nM | –
C=C(C)C(=O)Nc1ccc(-c2c(-c3ccc(N=S4(=O)CCC4)c(F)c3)c3c(N)ncnc3n2C)c(C)c1 [Compound 70] | 2.7 nM | 775 nM | –
C=C(C)C(=O)Nc1ccc(-c2c(-c3ccc(N=S4(=O)CCCC4)c(C(F)F)c3)c3c(N)ncnc3n2C)c(F)c1 [Compound 89, N-(4-(4-amino-5-(3-(difluoromethyl) -4-((1-tetrahydro-1λ^6-thiophene-1-ylidene)amino)phenyl) -7-methyl-7H-pyrrolo [2,3-d]pyrimidin-6-yl) -3-fluorophenyl) methacrylamide] | 6.5 nM | 686 nM | –
[2H]C([2H])([2H])n1c(-c2ccc(NC(=O)C(=C)C)cc2Cl)c(-c2ccc(N=S3(=O)CCC3)c(F)c2)c2c(N)ncnc21 [Compound 84, N-(4-(4-amino-5-(3-fluoro-4-(1-oxo-1λ^6-thietan-1-imino)phenyl)-7-(methyl-d3)-7H-pyrrolo[2,3-d]pyrimidin-6-yl)-3-chlorophenyl)methacrylamide] | 0.8 nM | 250 nM | –
C=C(C)C(=O)Nc1ccc(-c2c(-c3ccc(N=S4(=O)CCC4)c(F)c3)c3c(N)ncnc3n2C)c(F)c1 [Compound 75] | 0.8 nM | 701 nM | –
C=C(C)C(=O)Nc1ccc(-c2c(-c3ccc(N=S4(=O)CCCC4)cc3)c3c(N)ncnc3n2C)cc1 [Compound 31] | 8.3 nM | 2090 nM | –
C=C(C)C(=O)Nc1ccc(-c2c(-c3ccc(N=S4(=O)CC(C)(C)C4)cc3)c3c(N)ncnc3n2C)c(F)c1 [Compound 63] | 1.1 nM | 396 nM | AUC(0-t) [5]: 1700 ng·h/mL; Cmax [5]: 556 ng/mL; Tmax [5]: 0.5 h; half-life [5]: 2.59 h
C=C(C)C(=O)Nc1ccc(-c2c(-c3cc(F)c(N=S4(=O)CCC4)cc3F)c3c(N)ncnc3n2C)c(F)c1 [Compound 77, N-(4-(4-amino-5-(2,5-difluoro-4-((1-oxo-1λ^6-thiocyclobutan-1-ylidene)amino)phenyl) -7-methyl-7H-pyrrolo [2,3-d]pyrimidin-6-yl) -3-fluorophenyl) methacrylamide] | 4.7 nM | 884 nM | –
[2H]C([2H])([2H])n1c(-c2ccc(NC(=O)C(=C)C)cc2F)c(-c2ccc(N=S3(=O)CCCC3)c(Cl)c2)c2c(N)ncnc21 [Compound 82, N-(4-(4-amino-5-(3-chloro-4-((1-oxidetetrahydro-1λ^6-thiophene-1-ylidene)amino)phenyl)-7-(methyl-d3)-7H-pyrrolo[2,3-d]pyrimidin-6-yl)-3-fluorophenyl) methacrylamide] | 0.8 nM | 484 nM | –
C=C(C)C(=O)Nc1ccc(-c2c(-c3ccc(N=S(C)(C)=O)cc3)c3c(N)ncnc3n2C)c(F)c1 [Compound 107] | 15.6 nM | 3630 nM | –
C=C(C)C(=O)Nc1ccc(-c2c(-c3ccc(N=S4(=O)CCCC4)c(F)c3)c3c(N)ncnc3n2C)c(C(F)F)c1 [Compound 59, N-(4-(4-amino-5-(3-fluoro-4-((1-oxotetrahydro-1 λ^6-thiophene-1-ylidene)amino)phenyl) -7-methyl-7H-pyrrolo [2,3-d]pyrimidin-6-yl) -3-(difluoromethyl)phenyl) methacrylamide] | 7.8 nM | 1320 nM | –
C=C(C)C(=O)Nc1ccc(-c2c(-c3ccc(N=S4(=O)CCCC4)cc3F)c3c(N)ncnc3n2C)c(F)c1 [Compound 61, N-(4-(4-amino-5-(2-fluoro-4-((1-oxotetrahydro-1λ^6-thiophene-1-ylidene)amino)phenyl)-7-methyl-7H-pyrrolo[2,3-d]pyrimidin-6-yl)-3-fluorophenyl) methacrylamide] | 150 nM | – | –
C=C(C)C(=O)Nc1ccc(-c2c(-c3ccc(N=S4(=O)CCCCC4)nc3)c3c(N)ncnc3n2C)cc1 [Compound 17, N-[4-(4-amino-7-methyl-5-(6-((1-oxotetrahydro-2H-1 λ^6-thiopyran-1-ylidene)amino)pyridin-3-yl)pyrrolo [2,3-d]pyrimidin-6-yl)phenyl) methacrylamide] | 4620 nM | – | –
C=CC(=O)Nc1ccc(-c2c(-c3ccc(N=S4(=O)CCCCC4)c(F)c3)c3c(N)ncnc3n2C)cc1 [Compound 13, N-(4-(4-amino-5-(3-fluoro-4-((1-oxotetrahydro-2H-1 λ^6-thiopyran-1-ylidene)amino)phenyl) -7-methyl-7H-pyrrolo [2,3-d]pyrimidin-6-yl)phenyl) acrylamide] | 0.6 nM | – | –
C=C(C)C(=O)Nc1ccc(-c2c(-c3ccc(N=S(=O)(N4CCC4)C(F)(F)F)c(F)c3)c3c(N)ncnc3n2C)cc1 (stereo not drawn) [Compound 55, N-(4-(4-amino-5-(4-((azetidine 1-yl (oxo) (trifluoromethyl) -λ^6-sulfanylidene)amino)-3-fluorophenyl)-7-methyl-7H-pyrrolo[2,3-d]pyrimidin-6-yl)phenyl) methacrylamide] | 3 nM | – | –
C=C(C)C(=O)Nc1ccc(-c2c(-c3ccc(N=S4(=O)CCOCC4)c(F)c3)c3c(N)ncnc3n2C)cc1 [Compound 41] | 124 nM | – | –
CCN1CCN(c2ccc(Nc3cc(N(C)C(=O)Nc4c(Cl)c(OC)cc(OC)c4Cl)ncn3)cc2)CC1 [BGJ398, reference compound] | – | – | IC50 ([2]; Homo sapiens, SNU-16, 72 h): 4.3 nM; IC50 ([3]; Homo sapiens): 100 nM
CC#CC(=O)Nc1ccc(-c2c(-c3ccc(N=S(C)(C)=O)c(F)c3)c3c(N)ncnc3n2C)cc1C(C)(C)O [Compound 20] | 86.7 nM | – | –
C=C(C)C(=O)Nc1ccc(-c2c(-c3ccc(N=S4(=O)CCCC4)c(OC)c3)c3c(N)ncnc3n2C)c(F)c1 [Compound 80, N-(4-(4-amino-5-(3-methoxy-4-((1-hydroperoxid-1λ^6-thiophene-1-ylidene)amino)phenyl)-7-methyl-7H-pyrrolo[2,3-d]pyrimidin-6-yl)-3-fluorophenyl) methacrylamide] | 46 nM | – | –
C=C(C)C(=O)Nc1ccc(-c2c(-c3ccc(N=S(=O)(N(C)CC)C(F)(F)F)cc3)c3c(N)ncnc3n2C)cc1 (stereo not drawn) [Compound 54, N-(4-(4-amino-5-(4-(((ethyl (methyl)amino) (oxo) (trifluoromethyl) -λ^6-sulfanylidene)amino)phenyl) -7-methyl-7H-pyrrolo [2,3-d]pyrimidin-6-yl)phenyl) methacrylamide] | 2.8 nM | – | –
C=C(C)C(=O)Nc1ccc(-c2c(-c3ccc(N=S4(=O)CCCC4)c(OC)c3)c3c(N)ncnc3n2C)c(Cl)c1 [Compound 81, N-(4-(4-amino-5-(3-methoxy-4-((1-hydroperoxid-1 λ^6-thiophene-1-ylidene)amino)phenyl) -7-methyl-7H-pyrrolo [2,3-d]pyrimidin-6-yl) -3-chlorophenyl) methacrylamide] | 18.1 nM | – | –
